# US7696203B2, “DNA-PK inhibitors” (Kudos Pharmaceuticals Limited, priority 2005, dated 2010)
# Read-outs that look alike come from different tables or passages of the source.
# How the values were obtained:
# cells = conditions: ionising radiation, literature; cited from earlier work
# Mammalian DNA-PK = Mammalian DNA-PK (Homo sapiens, UniProt P78527); assay: DNA-PK inhibition assay (ELISA of p53 Ser15 phosphorylation of GST-p53N66); type: biochemical, human (isolated from HeLa cell nuclear extract)
# Protocol: In order to assess the inhibitory action of the compounds against DNA-PK in vitro, the following assay was used to determine IC50 values.
# To the assay mix, varying concentrations of inhibitor (in DMSO at a final concentration of 1%) were added. After 10 minutes of incubation, ATP was added to give a final concentration of 50 μM along with a 30 mer double stranded DNA oligonucleotide (final concentration of 0.5 ng/ml) to initiate the reaction. After 1 hour with shaking, 150 μl of phosphate buffered saline (PBS) was added to the reaction and 5 μl then transferred to a 96 well opaque white plate containing 45 μl of PBS per well where the GSTp53N66 substrate was allowed to bind to the wells for 1 hour. To detect the phosphorylation event on the serine 15 residue of p53 elicited by DNA-PK a p53 phosphoserine-15 antibody (Cell Signaling Technology) was used in a basic ELISA procedure. An anti-rabbit HRP conjugated secondary antibody (Pierce) was then employed in the ELISA before the addition of chemiluminescence reagent (NEN Renaissance) to detect the signal as measured by chemiluminescent counting via a TopCount NXT (Packard).
# The enzyme activity for each compound is then calculated using the following equation: […]
# These are determined over a range of different concentrations, normally from 10 μM down to 0.001 μM. Such IC50 values are used as comparative values to identify increased compound potencies.
# HeLa cells = assay: Survival Enhancement Ratio (clonogenic survival after 2 Gray irradiation); type: cell-based, human; conditions: inhibitor at 100 nM
# Protocol: Survival Enhancement Ratio
# The Survival Enhancement Ratio (SER) is a ratio of the enhancement of cell kill elicited by the DNA-PK inhibitor after 2 Grays of irradiation compared to unirradiated control cells. […] Radiation was delivered by a Faxitron 43855D machine at a dose rate of 1 Gy pre minute The SER at 2 Gray irradiation was calculated from the formula:
# The degree of cell killing was monitored by a standard clonogenic survival assay. Briefly, tissue culture treated 6-well plates were seeded with HeLa cells at an appropriate concentration to give 100-200 colonies per well and returned to the incubator in order to allow the cells to attach. Four hours later, compound or vehicle control was added to the cells. The cells were then incubated for 1 hour in the presence of inhibitor prior to irradiation at 2 Gray using a Faxitron 43855D cabinet X-ray machine. The cells were then incubated for a further 16 hours before the media was replaced with fresh media in the absence of DNA-PK inhibitor. After 8 days, colonies formed were fixed and stained with Giemsa (Sigma, Poole, UK) and scored using an automated colony counter (Oxford Optronics Ltd, Oxford, UK). The data was calculated as described above.
# [1] = DNA-PK from HeLa nuclear extract, 50 μM ATP, 30° C., read-out: IC50 (concentration at which 50% of the enzyme activity is inhibited), DNA-PK inhibition
Structure (SMILES),IC50 (Mammalian DNA-PK; [1]),further results
O=c1cc(N2CCOCC2)oc2c(-c3ccccc3)cccc12 [LY294002],,sensitisation of cells to the effects of IR (cells): weakly sensitise cells
O=c1cc(N2CCOCC2)nc2c(-c3cccc4c3oc3ccccc34)cccn12 [Compound 34b],,IC50 (Mammalian DNA-PK): < 100 nM
"O=c1cc(N2CCOCC2)nc2c(-c3ccc(O)c4c3sc3ccccc34)cccn12 [Compound 31, 9-(1-Hydroxy-dibenzothiophen-4-yl)-2-morpholin-4-yl-pyrido[2,1-a]pyrimidin-4-one]",< 100 nM,
C[C@@H]1CN(CC(=O)Nc2ccc(-c3cccc4c(=O)cc(N5CCOCC5)[nH]c34)c3oc4ccccc4c23)C[C@H](C)O1 [Compound 42d],< 100 nM,
C[C@@H]1CN(CCC(=O)Nc2ccc(-c3cccc4c(=O)cc(N5CCOCC5)oc34)c3oc4ccccc4c23)C[C@H](C)O1 [Compound 45a],< 100 nM,
O=C(CN1CCN(CCO)CC1)Nc1ccc(-c2cccc3c(=O)cc(N4CCOCC4)[nH]c23)c2oc3ccccc3c12 [Compound 42f],< 100 nM,
"O=c1cc(N2CCOCC2)[nH]c2c(-c3ccc([N+](=O)[O-])c4c3oc3ccccc34)cccc12 [Compound 28, 2-Morpholin-4-yl-8-(1-nitro-dibenzofuran-4-yl)-1H-quinolin-4-one]",,melting point: 247 °C
O=C(CCN1CCOCC1)Nc1ccc(-c2cccc3c(=O)cc(N4CCOCC4)oc23)c2oc3ccccc3c12 [Compound 45c],< 100 nM,
"Nc1ccc(-c2cccc3c(=O)cc(N4CCOCC4)[nH]c23)c2sc3ccccc3c12 [Compound 25, 8-(1-amino-dibenzothiophen-4-yl)-2-morpholin-4-yl-1H-quinolin-4-one]",< 100 nM,
O=c1cc(N2CCOCC2)oc2c(-c3cccc4c3sc3ccccc34)cccc12 [reference compound],,IC50 (Mammalian DNA-PK): 10 to 12 nM; SER (Survival Enhancement Ratio) (HeLa cells): 1.3
O=C(CN1CCOCC1)Nc1ccc(-c2cccc3c(=O)cc(N4CCOCC4)[nH]c23)c2sc3ccccc3c12 [Compound 38b],< 100 nM,
"Nc1ccc(-c2cccn3c(=O)cc(N4CCOCC4)nc23)c2sc3ccccc3c12 [Compound 23, 9-(1-Amino-dibenzothiophen-4-yl)-2-morpholin-4-yl-pyrido[2,1-a]pyrimidin-4-one]",< 100 nM,
COCCN1CCN(CC(=O)Nc2ccc(-c3cccc4c(=O)cc(N5CCOCC5)[nH]c34)c3oc4ccccc4c23)CC1 [Compound 42b],< 100 nM,
